The values that follow are results of earlier work, collected in patent US20110052683A1, “PHARMACEUTICAL PREPARATION FOR TREATING CARDIOVASCULAR DISEASE” (priority 2008, published 2011).

For data set [1] the following is noted: combined administration of atorvastatin with diltiazem.
The conditions of data set [2]: combined administration of lovastatin with diltiazem.
For data set [3] the following is noted: combined administration of pravastatin with verapamil.

On to `CC(C)c1c(C(=O)Nc2ccccc2)c(-c2ccccc2)c(-c2ccc(F)cc2)n1CC[C@@H](O)C[C@@H](O)CC(=O)O` [atorvastatin], for which the “side effects of combined administration” value in data set [1] is “occurrence of rhabdomyolysis and acute hepatitis”.

With `CC[C@H](C)C(=O)O[C@H]1C[C@@H](C)C=C2C=C[C@H](C)[C@H](CC[C@@H]3C[C@@H](O)CC(=O)O3)[C@H]21` [lovastatin], the “change in Cmax and AUC” value in data set [2] is “sudden increase in Cmax and AUC”. Take `CC[C@H](C)C(=O)O[C@H]1C[C@H](O)C=C2C=C[C@H](C)[C@H](CC[C@@H](O)C[C@@H](O)CC(=O)O)[C@H]21` [pravastatin]: in data set [3], the “increase in AUC” value is 31% and the “increase in Cmax” value is 42%.
